Among the data in ChEMBL document CHEMBL5465560, “Selectivity Literature for EUbOPEN Chemogenomic Library” (2024) are % of control and % of inhibition values, retold here.

In experiment [1] the target is Casein kinase I isoform gamma-3 (Homo sapiens) (UniProt Q9Y6M4). As to conditions: at 10 µM.
Experiment [2] has as its target T1, Protein kinase C epsilon type (Homo sapiens) (UniProt Q02156).
T1 sequence (whole entry): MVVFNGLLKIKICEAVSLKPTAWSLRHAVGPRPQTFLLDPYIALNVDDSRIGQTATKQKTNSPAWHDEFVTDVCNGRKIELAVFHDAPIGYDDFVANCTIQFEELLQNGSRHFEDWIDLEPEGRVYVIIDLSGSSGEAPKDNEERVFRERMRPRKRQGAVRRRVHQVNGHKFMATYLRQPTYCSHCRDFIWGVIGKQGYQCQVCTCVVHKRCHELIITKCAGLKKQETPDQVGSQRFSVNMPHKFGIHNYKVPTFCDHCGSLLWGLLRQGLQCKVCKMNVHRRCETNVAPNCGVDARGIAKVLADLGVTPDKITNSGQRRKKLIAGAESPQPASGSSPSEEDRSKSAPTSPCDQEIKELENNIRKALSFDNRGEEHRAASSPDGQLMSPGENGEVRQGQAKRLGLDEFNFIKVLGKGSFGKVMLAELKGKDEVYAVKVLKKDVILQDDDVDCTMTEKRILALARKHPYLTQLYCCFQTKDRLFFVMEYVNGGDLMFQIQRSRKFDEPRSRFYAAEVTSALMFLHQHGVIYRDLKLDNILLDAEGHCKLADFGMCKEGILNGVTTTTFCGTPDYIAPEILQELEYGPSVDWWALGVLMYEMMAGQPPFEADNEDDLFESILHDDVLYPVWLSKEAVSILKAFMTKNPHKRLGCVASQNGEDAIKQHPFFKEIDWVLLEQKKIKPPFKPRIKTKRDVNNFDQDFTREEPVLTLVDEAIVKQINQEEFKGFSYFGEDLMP
Nature of the experiment: Selectivity interaction (Ambit KINOMEscan and KiNATiv profiling in Jurkat cells) EUB0000090b PRKCE. Type of experiment: cell-based. As to conditions: at 1 µM.

For experiment [3], the target named is Serine/threonine-protein kinase WNK3 (Homo sapiens) (UniProt Q9BYP7). Nature of the experiment: Selectivity interaction (KinomeScan (DiscoverX)) EUB0001079a WNK3. The settings on record: at 1 µM.
Chain of Serine/threonine-protein kinase WNK3 (Homo sapiens) (Q9BYP7 whole entry): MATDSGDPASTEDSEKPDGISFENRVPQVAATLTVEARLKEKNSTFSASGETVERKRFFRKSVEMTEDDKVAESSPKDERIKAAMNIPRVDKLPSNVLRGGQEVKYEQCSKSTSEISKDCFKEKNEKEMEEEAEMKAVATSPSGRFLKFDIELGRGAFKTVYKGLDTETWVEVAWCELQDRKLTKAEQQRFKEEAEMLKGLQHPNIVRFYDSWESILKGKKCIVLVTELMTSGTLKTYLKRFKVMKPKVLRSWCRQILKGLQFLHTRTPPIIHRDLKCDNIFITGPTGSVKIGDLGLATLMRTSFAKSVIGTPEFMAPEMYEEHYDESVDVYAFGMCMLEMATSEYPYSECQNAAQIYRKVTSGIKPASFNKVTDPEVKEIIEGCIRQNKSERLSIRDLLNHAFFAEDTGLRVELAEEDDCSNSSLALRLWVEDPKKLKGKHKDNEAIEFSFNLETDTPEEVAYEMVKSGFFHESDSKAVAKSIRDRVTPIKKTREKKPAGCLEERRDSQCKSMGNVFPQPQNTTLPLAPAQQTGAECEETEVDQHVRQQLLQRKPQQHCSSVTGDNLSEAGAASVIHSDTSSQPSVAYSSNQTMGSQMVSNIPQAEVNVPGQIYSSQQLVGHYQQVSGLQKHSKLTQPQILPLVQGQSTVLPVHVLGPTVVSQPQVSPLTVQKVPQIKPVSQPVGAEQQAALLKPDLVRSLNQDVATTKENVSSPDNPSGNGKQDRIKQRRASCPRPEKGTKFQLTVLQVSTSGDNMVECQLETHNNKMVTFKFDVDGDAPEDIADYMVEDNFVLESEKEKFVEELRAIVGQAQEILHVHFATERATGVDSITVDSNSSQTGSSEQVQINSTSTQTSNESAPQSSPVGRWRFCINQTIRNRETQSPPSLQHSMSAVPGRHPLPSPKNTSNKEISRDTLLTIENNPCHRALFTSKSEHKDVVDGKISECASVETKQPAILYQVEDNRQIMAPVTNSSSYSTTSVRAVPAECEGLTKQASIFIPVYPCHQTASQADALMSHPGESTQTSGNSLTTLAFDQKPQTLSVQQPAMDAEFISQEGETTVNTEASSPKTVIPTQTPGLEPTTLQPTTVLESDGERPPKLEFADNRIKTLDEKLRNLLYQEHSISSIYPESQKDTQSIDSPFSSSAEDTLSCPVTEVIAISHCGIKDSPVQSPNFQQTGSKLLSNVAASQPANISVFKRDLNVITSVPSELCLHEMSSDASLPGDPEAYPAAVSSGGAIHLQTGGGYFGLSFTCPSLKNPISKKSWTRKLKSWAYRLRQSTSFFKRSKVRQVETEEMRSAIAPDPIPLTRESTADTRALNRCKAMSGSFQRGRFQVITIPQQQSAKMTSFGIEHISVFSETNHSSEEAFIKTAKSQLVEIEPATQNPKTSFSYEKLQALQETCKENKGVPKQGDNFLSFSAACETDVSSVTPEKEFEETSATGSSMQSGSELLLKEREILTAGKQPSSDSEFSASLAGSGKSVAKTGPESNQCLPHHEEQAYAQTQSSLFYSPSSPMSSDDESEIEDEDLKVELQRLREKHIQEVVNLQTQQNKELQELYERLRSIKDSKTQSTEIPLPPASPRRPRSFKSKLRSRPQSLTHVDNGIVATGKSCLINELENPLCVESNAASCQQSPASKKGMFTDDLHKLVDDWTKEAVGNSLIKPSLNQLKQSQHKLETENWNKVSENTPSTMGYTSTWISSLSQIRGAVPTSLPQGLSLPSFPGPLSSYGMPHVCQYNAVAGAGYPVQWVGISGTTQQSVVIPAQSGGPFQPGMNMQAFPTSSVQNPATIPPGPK
For experiment [4], the target named is Protein-tyrosine kinase 6 (Homo sapiens, UniProt Q13882). Nature of the experiment: Selectivity interaction (KinomeScan (DiscoverX)) EUB0000045b PTK6.
Chain of Protein-tyrosine kinase 6 (Q13882 whole entry, looked up): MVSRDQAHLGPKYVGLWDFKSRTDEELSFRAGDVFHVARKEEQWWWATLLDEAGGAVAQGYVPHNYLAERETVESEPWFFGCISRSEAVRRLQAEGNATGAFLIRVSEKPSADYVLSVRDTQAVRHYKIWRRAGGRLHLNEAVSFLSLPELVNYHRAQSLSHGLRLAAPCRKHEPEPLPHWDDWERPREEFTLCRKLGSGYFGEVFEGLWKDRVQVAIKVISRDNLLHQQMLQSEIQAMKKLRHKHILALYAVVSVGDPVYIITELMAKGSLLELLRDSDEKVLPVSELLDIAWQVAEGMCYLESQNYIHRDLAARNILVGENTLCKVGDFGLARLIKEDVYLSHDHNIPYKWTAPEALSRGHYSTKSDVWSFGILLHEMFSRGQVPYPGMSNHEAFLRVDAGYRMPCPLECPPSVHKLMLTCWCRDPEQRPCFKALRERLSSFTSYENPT
Experiment [5] has as its target TRAF2 and NCK-interacting protein kinase (Homo sapiens) (UniProt Q9UKE5). Description: Selectivity interaction (KinomeScan (DiscoverX)) EUB0000666a TNIK. The settings on record: at 10 µM.
Experiment [6] concerns the target T2, Mitogen-activated protein kinase kinase kinase 5 (Homo sapiens) (UniProt Q99683).
T2 sequence (whole entry): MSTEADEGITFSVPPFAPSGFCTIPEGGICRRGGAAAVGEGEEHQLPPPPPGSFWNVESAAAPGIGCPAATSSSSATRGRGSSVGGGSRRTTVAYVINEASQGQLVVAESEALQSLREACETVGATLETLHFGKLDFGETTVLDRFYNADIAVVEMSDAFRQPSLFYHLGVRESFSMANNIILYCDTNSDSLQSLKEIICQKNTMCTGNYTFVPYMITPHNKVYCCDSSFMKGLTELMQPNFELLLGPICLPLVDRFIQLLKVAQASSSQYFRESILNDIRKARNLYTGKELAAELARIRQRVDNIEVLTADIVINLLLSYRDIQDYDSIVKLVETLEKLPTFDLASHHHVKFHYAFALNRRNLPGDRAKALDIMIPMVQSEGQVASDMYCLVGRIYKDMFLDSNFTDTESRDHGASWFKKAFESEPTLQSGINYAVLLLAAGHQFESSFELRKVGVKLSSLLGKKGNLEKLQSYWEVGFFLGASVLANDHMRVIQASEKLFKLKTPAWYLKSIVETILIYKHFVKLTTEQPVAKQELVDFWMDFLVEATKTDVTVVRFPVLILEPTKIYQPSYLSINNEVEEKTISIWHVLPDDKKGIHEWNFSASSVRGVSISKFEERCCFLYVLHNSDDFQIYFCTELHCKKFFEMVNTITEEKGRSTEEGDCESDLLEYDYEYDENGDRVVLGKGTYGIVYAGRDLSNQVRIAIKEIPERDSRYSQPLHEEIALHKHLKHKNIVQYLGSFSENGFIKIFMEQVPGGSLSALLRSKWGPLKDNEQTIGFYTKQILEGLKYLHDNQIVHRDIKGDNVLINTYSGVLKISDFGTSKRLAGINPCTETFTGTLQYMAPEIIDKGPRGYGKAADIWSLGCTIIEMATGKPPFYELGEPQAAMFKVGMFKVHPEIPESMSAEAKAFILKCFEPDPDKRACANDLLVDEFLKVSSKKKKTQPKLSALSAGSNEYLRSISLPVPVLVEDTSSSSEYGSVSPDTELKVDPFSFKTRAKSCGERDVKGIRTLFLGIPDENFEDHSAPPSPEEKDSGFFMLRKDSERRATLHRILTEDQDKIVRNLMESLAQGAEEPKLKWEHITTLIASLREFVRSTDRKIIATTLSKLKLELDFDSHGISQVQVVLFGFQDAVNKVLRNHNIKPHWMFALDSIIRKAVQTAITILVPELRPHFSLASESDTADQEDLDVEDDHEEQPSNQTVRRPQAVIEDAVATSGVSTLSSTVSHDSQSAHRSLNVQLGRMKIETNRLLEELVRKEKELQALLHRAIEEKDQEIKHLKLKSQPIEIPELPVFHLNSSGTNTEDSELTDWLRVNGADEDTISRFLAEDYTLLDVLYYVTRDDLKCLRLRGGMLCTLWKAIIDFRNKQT
Nature of the experiment: Selectivity interaction (Kinase panel (Invitrogen)) EUB0000639a MAP3K5. As to conditions: at 200 nM.

The target in experiment [7] is NT-3 growth factor receptor (Homo sapiens, UniProt Q16288). Description: Selectivity interaction (KinomeScan (DiscoverX)) EUB0001619a NTRK3. The settings on record: at 1 µM.
In experiment [8] the target is Mitogen-activated protein kinase 6 (Homo sapiens) (UniProt Q16659). Nature of the experiment: Selectivity interaction (KinomeScan (DiscoverX)) EUB0001619a MAPK6. The settings on record: at 1 µM.
Chain of Mitogen-activated protein kinase 6 (Homo sapiens) (Q16659 whole entry): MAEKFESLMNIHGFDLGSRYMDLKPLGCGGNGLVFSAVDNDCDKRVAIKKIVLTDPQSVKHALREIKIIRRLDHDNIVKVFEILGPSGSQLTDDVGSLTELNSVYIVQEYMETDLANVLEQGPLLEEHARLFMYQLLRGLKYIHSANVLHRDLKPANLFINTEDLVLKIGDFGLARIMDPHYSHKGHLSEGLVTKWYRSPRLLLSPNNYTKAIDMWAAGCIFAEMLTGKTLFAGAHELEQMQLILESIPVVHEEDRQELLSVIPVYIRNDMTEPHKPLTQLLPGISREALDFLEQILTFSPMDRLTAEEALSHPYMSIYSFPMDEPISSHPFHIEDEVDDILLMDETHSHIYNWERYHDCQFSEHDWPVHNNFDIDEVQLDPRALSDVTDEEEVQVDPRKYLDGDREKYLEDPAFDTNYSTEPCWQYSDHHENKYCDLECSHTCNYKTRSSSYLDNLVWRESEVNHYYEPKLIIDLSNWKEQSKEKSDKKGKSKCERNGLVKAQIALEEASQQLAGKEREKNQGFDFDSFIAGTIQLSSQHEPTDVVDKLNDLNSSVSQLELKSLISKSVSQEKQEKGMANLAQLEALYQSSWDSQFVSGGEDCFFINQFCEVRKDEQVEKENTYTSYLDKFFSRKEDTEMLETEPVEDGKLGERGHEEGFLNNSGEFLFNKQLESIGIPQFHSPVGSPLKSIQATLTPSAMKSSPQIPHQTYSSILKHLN

Chain of TRAF2 and NCK-interacting protein kinase (Homo sapiens) (Q9UKE5 whole entry, looked up): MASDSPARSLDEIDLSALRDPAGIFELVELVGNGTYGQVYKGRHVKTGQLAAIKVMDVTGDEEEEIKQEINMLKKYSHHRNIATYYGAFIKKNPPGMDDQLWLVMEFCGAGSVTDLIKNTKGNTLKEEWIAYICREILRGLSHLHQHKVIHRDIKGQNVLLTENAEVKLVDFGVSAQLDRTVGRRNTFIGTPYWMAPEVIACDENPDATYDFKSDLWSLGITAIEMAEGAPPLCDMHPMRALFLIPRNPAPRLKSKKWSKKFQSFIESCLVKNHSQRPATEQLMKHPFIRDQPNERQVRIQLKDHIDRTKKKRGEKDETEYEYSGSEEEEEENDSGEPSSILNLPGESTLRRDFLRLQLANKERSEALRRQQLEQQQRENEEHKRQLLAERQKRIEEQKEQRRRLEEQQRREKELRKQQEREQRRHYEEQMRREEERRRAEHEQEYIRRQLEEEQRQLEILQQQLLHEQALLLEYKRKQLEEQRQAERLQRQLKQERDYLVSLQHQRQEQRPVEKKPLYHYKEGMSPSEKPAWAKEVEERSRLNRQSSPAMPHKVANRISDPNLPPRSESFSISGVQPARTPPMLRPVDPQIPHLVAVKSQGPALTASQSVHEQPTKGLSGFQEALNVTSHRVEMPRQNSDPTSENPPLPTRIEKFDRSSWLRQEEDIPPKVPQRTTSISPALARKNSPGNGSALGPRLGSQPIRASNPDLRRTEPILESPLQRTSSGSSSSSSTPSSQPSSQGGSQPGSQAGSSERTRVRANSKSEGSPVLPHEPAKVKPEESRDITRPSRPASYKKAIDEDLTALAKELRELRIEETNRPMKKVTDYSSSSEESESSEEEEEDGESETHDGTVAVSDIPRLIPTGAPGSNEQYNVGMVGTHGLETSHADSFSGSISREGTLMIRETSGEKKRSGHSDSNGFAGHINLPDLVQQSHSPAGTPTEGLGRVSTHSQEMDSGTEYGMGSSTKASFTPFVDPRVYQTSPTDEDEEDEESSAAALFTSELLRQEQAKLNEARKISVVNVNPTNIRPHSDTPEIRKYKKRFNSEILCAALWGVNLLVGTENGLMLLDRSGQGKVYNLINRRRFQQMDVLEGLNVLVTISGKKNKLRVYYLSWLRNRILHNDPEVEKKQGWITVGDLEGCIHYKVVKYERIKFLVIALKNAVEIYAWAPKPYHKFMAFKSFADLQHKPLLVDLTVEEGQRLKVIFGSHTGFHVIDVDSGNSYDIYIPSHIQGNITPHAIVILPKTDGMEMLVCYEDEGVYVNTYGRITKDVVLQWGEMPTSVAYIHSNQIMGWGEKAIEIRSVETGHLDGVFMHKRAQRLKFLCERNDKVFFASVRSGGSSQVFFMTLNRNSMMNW
Chain of Casein kinase I isoform gamma-3 (Homo sapiens) (Q9Y6M4 whole entry, looked up, canonical isoform): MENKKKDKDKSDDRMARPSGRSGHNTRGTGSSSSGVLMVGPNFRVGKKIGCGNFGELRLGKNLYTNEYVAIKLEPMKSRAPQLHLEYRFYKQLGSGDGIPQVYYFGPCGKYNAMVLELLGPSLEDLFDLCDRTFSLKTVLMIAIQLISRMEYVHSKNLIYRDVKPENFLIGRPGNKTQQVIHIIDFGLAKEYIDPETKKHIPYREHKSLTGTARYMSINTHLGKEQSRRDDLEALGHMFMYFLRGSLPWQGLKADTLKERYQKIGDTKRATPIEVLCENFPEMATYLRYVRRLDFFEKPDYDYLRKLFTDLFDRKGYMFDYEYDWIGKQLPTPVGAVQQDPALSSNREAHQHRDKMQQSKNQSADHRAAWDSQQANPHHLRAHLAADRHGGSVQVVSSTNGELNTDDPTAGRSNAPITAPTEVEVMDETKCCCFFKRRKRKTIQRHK

For the compound `Cc1cc([C@@H](C)Nc2ccccc2C(=O)O)c2nc(N3CCOCC3)cc(=O)n2c1` [AZD-6482], the % of control in experiment [1] turned out to be 100%.
`CN(C)C/C=C/C(=O)Nc1ccc(C(=O)N2CCCC(Nc3ncc(Cl)c(-c4c[nH]c5ccccc45)n3)C2)cc1` (centres undefined): the % of control in experiment [2] is 99%.
As to `Nc1cnc(N2CCc3cc(S(=O)(=O)Nc4c(F)cc(Cl)cc4F)cc(N4CCCC4=O)c32)nc1` [TP-020n], in experiment [3], the % of control is 100%.
Turning to `C=CC(=O)Nc1cc(-n2c(=O)ccc3cnc4ccc(-c5ccc(NS(C)(=O)=O)cc5)cc4c32)ccc1C`, the % of control was 100% in experiment [4] (at 1 µM) and 77% in experiment [4] (at 10 µM).
Take `O=C(NOC[C@H](O)CO)c1ccc(F)c(F)c1Nc1ccc(I)cc1F`: the % of control in experiment [5] came out at 100%.
As for `CC[C@@H]1[C@H](F)C(=O)N[C@@H]1COc1nccc2cc(C(N)=O)c(OC)cc12` [ZIMLOVISERTIB], the % of inhibition in experiment [6] is -8.62%.
On to `N#Cc1cccc(-c2c[nH]c3ncnc(N4CCOCC4)c23)c1`, for which the % of control in experiment [7] worked out at 84%; in experiment [8], 100%.
